Measurements as given in patent US20210205196A1, “PRESERVED COMPOSITIONS” (Conopco, Inc., d/b/a UNILEVER, priority 2018, published 2021).

Tests used:
[1] = system: Gram Negative fermenting bacteria: Enterobacter cloacae, Klebsiella sp; assay: Modified Ph. Eur. 5.1.3 microbial challenge test in shampoo, Pool 2; type: cell-based
[2] = system: Gram Negative non-fermenting bacteria: Pseudomonas aeruginosa, Burkholderia cepacia, Strenotrophomonas sp; assay: Modified Ph. Eur. 5.1.3 microbial challenge test in shampoo, Pool 1; type: cell-based
[3] = 0.5% (w/w) acid in shampoo base, pH 5, 7 days
[4] = 0.5% (w/w) acid in shampoo base, pH 5, 14 days (reinoculated at 7 days)
[5] = 0.5% (w/w) acid in shampoo base, pH 5, 21 days (reinoculated at 7 and 14 days)
[6] = 0.5% (w/w) acid in shampoo base, pH 5, 28 days (reinoculated at 7 and 14 days)
[7] = 1.0% (w/w) acid in shampoo base, pH 5, 7 days
[8] = 1.0% (w/w) acid in shampoo base, pH 5, 14 days (reinoculated at 7 days)
[9] = 1.0% (w/w) acid in shampoo base, pH 5, 21 days (reinoculated at 7 and 14 days)
[10] = 1.0% (w/w) acid in shampoo base, pH 5, 28 days (reinoculated at 7 and 14 days)

SMILES | Microbial Log reduction [1, 3] | Microbial Log reduction [1, 4] | Microbial Log reduction [1, 5] | Microbial Log reduction [1, 6] | Microbial Log reduction [1, 7] | Microbial Log reduction [1, 8] | Microbial Log reduction [1, 9] | Microbial Log reduction [1, 10] | Microbial Log reduction [2, 3] | Microbial Log reduction [2, 4] | Microbial Log reduction [2, 5] | Microbial Log reduction [2, 6] | Microbial Log reduction [2, 7] | Microbial Log reduction [2, 8] | Microbial Log reduction [2, 9] | Microbial Log reduction [2, 10]
O=C(O)CC(O)(CC(=O)O)C(=O)O [Citric acid, citric acid] | 4.88 log | >5.69 log | >5.80 log | >5.80 log | 4.97 log | >5.69 log | >5.80 log | >5.80 log | >5.61 log | 3.84 log | >5.74 log | >5.74 log | >5.61 log | >5.56 log | >5.74 log | >5.74 log
CC(O)C(=O)O (stereo not drawn) [Lactic acid, lactic acid] | 3.93 log | >5.69 log | >5.80 log | >5.80 log | >5.88 log | >5.69 log | >5.80 log | >5.80 log | >5.61 log | >5.56 log | >5.74 log | >5.74 log | >5.61 log | >5.56 log | >5.74 log | >5.74 log
C=C(CC(=O)O)C(=O)O [Itaconic acid] | >5.88 log | >5.69 log | >5.80 log | >5.80 log | >5.88 log | >5.69 log | >5.80 log | >5.80 log | >5.68 log | >5.56 log | >5.74 log | >5.74 log | >5.61 log | >5.56 log | >5.74 log | >5.74 log
